Experimental data reported in the CheMixHub viscosity set.
± gives the uncertainty stated by the source.

Assay: xn = mol fraction of the nth substance listed

NCCN1CCNCC1 + O
101.3 kPa
Conditions	viscosity [mPa·s]
298 K, x1 = 0.00152	0.92 ± 0.05
298 K, x1 = 0.00275	0.95 ± 0.05
298 K, x1 = 0.00774	1.11 ± 0.06
298 K, x1 = 0.0161	1.38 ± 0.07
298 K, x1 = 0.0255	1.82 ± 0.09
303 K, x1 = 0.00152	0.87 ± 0.04
303 K, x1 = 0.00275	0.89 ± 0.05
303 K, x1 = 0.00774	1 ± 0.05
303 K, x1 = 0.0161	1.25 ± 0.06
303 K, x1 = 0.0255	1.66 ± 0.08
303.2 K, x1 = 0.015	1.241 ± 0.026
303.2 K, x1 = 0.024	1.651 ± 0.035
303.2 K, x1 = 0.034	2.17 ± 0.05
303.2 K, x1 = 0.044	2.861 ± 0.063
303.2 K, x1 = 0.056	3.918 ± 0.084
303.2 K, x1 = 0.07	4.722 ± 0.1
303.2 K, x1 = 0.085	5.556 ± 0.12
313 K, x1 = 0.00152	0.74 ± 0.04
313 K, x1 = 0.00275	0.78 ± 0.04
313 K, x1 = 0.00774	0.85 ± 0.04
313 K, x1 = 0.0161	1.04 ± 0.05
313 K, x1 = 0.0255	1.32 ± 0.07
313.2 K, x1 = 0.015	1.001 ± 0.021
313.2 K, x1 = 0.024	1.312 ± 0.028
313.2 K, x1 = 0.034	1.589 ± 0.035
313.2 K, x1 = 0.044	2.074 ± 0.045
313.2 K, x1 = 0.056	2.839 ± 0.062
313.2 K, x1 = 0.07	3.558 ± 0.077
313.2 K, x1 = 0.085	4.367 ± 0.094
323 K, x1 = 0.00152	0.6 ± 0.03
323 K, x1 = 0.00275	0.61 ± 0.03
323 K, x1 = 0.00774	0.69 ± 0.04
323 K, x1 = 0.0161	0.83 ± 0.04
323 K, x1 = 0.0255	1.03 ± 0.05

Oc1cccc2ccccc12 + CCO
viscosity [mPa·s], 101 kPa
Conditions	x1 = 0.03	x1 = 0.06	x1 = 0.09	x1 = 0.12	x1 = 0.15
293.15 K	1.425 ± 0.036	1.638 ± 0.039	1.885 ± 0.044	2.205 ± 0.05	2.538 ± 0.058
303.15 K	1.158 ± 0.031	1.337 ± 0.034	1.523 ± 0.037	1.733 ± 0.041	1.968 ± 0.045
313.15 K	0.964 ± 0.028	1.103 ± 0.03	1.251 ± 0.033	1.417 ± 0.036	1.6 ± 0.039
323.15 K	0.795 ± 0.026	0.91 ± 0.028	1.048 ± 0.03	1.186 ± 0.032	1.339 ± 0.034

CCCCO + O
Conditions	viscosity [mPa·s]
293.15 K, 100 kPa, x1 = 0.02	1.378 ± 0.0041
293.15 K, 100 kPa, x1 = 0.5485	3.301 ± 0.0099
293.15 K, 101 kPa, x1 = 0.005	1.077 ± 0.01
293.15 K, 101 kPa, x1 = 0.01	1.155 ± 0.011
293.15 K, 101 kPa, x1 = 0.015	1.232 ± 0.012
298.15 K, 101 kPa, x1 = 0.005	0.947 ± 0.009
298.15 K, 101 kPa, x1 = 0.01	1.003 ± 0.01
298.15 K, 101 kPa, x1 = 0.015	1.058 ± 0.01
298.15 K, 101 kPa, x1 = 0.69	2.598 ± 0.023
298.15 K, 101 kPa, x2 = 0.0398	2.622 ± 0.023
298.15 K, 101 kPa, x2 = 0.0784	2.618 ± 0.023
298.15 K, 101 kPa, x2 = 0.1202	2.619 ± 0.023
298.15 K, 101 kPa, x2 = 0.1424	2.62 ± 0.022
298.15 K, 101 kPa, x2 = 0.163	2.626 ± 0.022
298.15 K, 101 kPa, x2 = 0.1955	2.634 ± 0.022
298.15 K, 101 kPa, x2 = 0.2265	2.647 ± 0.022
298.15 K, 101 kPa, x2 = 0.2719	2.679 ± 0.022
298.15 K, 101.3 kPa, x1 = 0.003	0.9421 ± 0.027
298.15 K, 101.3 kPa, x1 = 0.006	0.994 ± 0.028
298.15 K, 101.3 kPa, x1 = 0.009	1.047 ± 0.029
298.15 K, 101.3 kPa, x1 = 0.012	1.1 ± 0.031
298.15 K, 101.33 kPa, x1 = 0.0017	0.921 ± 0.008
298.15 K, 101.33 kPa, x1 = 0.00297	0.941 ± 0.008
298.15 K, 101.33 kPa, x1 = 0.00364	0.949 ± 0.008
298.15 K, 101.33 kPa, x1 = 0.00491	0.97 ± 0.008
298.15 K, 101.33 kPa, x1 = 0.00559	0.981 ± 0.008
298.15 K, 101.33 kPa, x1 = 0.0081	1.021 ± 0.008
298.15 K, 101.33 kPa, x1 = 0.00972	1.048 ± 0.008
298.15 K, 101.33 kPa, x1 = 0.0124	1.096 ± 0.008
298.15 K, 101.33 kPa, x1 = 0.0136	1.114 ± 0.008
298.15 K, 101.33 kPa, x1 = 0.0151	1.141 ± 0.008
298.15 K, 101.33 kPa, x1 = 0.0166	1.166 ± 0.008
298.15 K, 101.33 kPa, x1 = 0.0179	1.185 ± 0.008
303.15 K, 101 kPa, x1 = 0.005	0.842 ± 0.008
303.15 K, 101 kPa, x1 = 0.01	0.883 ± 0.009
303.15 K, 101 kPa, x1 = 0.015	0.93 ± 0.009
303.15 K, 101.33 kPa, x1 = 0.013	0.968 ± 0.2
303.15 K, 101.33 kPa, x2 = 0.095	2.236 ± 0.45
303.15 K, 101.33 kPa, x2 = 0.2526	2.272 ± 0.46
303.15 K, 101.33 kPa, x2 = 0.4385	2.42 ± 0.49
308.15 K, 101 kPa, x1 = 0.005	0.758 ± 0.007
308.15 K, 101 kPa, x1 = 0.01	0.794 ± 0.008
308.15 K, 101 kPa, x1 = 0.015	0.841 ± 0.008
308.15 K, 101 kPa, x2 = 0.0398	2.032 ± 0.018
308.15 K, 101 kPa, x2 = 0.0784	2.022 ± 0.018
308.15 K, 101 kPa, x2 = 0.1202	2.017 ± 0.018
308.15 K, 101 kPa, x2 = 0.1424	2.016 ± 0.017
308.15 K, 101 kPa, x2 = 0.163	2.017 ± 0.017
308.15 K, 101 kPa, x2 = 0.1955	2.024 ± 0.017
308.15 K, 101 kPa, x2 = 0.2265	2.027 ± 0.017
313.15 K, 101 kPa, x1 = 0.005	0.682 ± 0.007
313.15 K, 101 kPa, x1 = 0.01	0.712 ± 0.007
313.15 K, 101 kPa, x1 = 0.015	0.746 ± 0.007
318.15 K, 101 kPa, x1 = 0.005	0.62 ± 0.006
318.15 K, 101 kPa, x1 = 0.01	0.638 ± 0.006
318.15 K, 101 kPa, x1 = 0.015	0.662 ± 0.007
318.15 K, 101 kPa, x2 = 0.0412	1.597 ± 0.014
318.15 K, 101 kPa, x2 = 0.0733	1.588 ± 0.014
318.15 K, 101 kPa, x2 = 0.1101	1.581 ± 0.014
318.15 K, 101 kPa, x2 = 0.1458	1.576 ± 0.014
318.15 K, 101 kPa, x2 = 0.1755	1.571 ± 0.014
318.15 K, 101 kPa, x2 = 0.2129	1.578 ± 0.014
323.15 K, 100 kPa, x1 = 0.02	0.668 ± 0.002
323.15 K, 100 kPa, x1 = 0.5485	1.447 ± 0.0043
323.15 K, 101 kPa, x1 = 0.005	0.566 ± 0.006
323.15 K, 101 kPa, x1 = 0.01	0.58 ± 0.006
323.15 K, 101 kPa, x1 = 0.015	0.602 ± 0.006
